The test system of one data set is NSCLC H838 cell. Nature of the data set: Cytotoxicity assay (direct cell counting), H838. Format: cell-based. The conditions noted are these: H838 cells, 3 days incubation, viable cells counted. The protocol: (§1) Cell culture, imaging, and cytotoxicity assay
(§2) RPMI-1640 medium. NIH/3T3 was cultured in DMEM medium. A549 was cultured in F-12K medium. T24 were cultured in McCoy's 5A medium. All culture mediums were supplemented with 10% fetal bovine serum. The cells were incubated at 37 °C in an atmosphere containing 5% CO 2. […]
(§3) Cytotoxicity assay. All test cell lines were incubated in 96-well plates overnight at a density of 3000 cells/well. The culture medium was replaced with 200 μL of culture medium, into which the testing compound was dispersed at various concentrations (1.95 - 500 μM). After incubating for 3 days, the viable cell numbers were checked and directly counted under microscopy (10X). A minimum of 1mm×1mm area was counted from each of at least three widely separated regions of cell culture. The cell proliferation rate was calculated by the following formula: cell proliferation rate (%) = (average cell number of sample wells / average cell number of control wells) ×100%.
(§4) The intact culture medium was evaluated as a control. […]
All animal experiments were performed in compliance with the Guidelines for the Care and Use of Research Animals as established by the Stanford University Animal Studies Committee. Female athymic nude mice (nu/nu) from 4−6 weeks old were obtained from Charles River Laboratories (Boston, MA, USA) and kept under sterile conditions. 5 × 106 human lung adenocarcinoma

Data set [1] can be described thus: Cytotoxicity assay (direct cell counting), NIH-3T3. Format: cell-based. Particulars: mouse; NIH-3T3 normal cells; 3 days incubation, viable cells counted. As to the method: as §1, §2, §3, §4
A further data set deals with bladder cancer T24 cell. Nature of the data set: Cytotoxicity assay (direct cell counting), T24. Format: cell-based. The conditions noted are these: for pIC50: T24 cells, 3 days incubation, viable cells counted. As to the method:
as §1, §2, §3, §4

Data set [2] is described as follows: Photostability under continuous excitation. The conditions noted are these: water, 10 μM, continuously excited for 50 min. Format: physicochemical. As to the method: bandpass filter (MF559-34, Thorlabs, Newton, New Jersey, USA) was used to excite Mitotracker
Red. All the dyes were dissolved in water at a 10 µM concentration in 700 µL micro quartz cuvettes (10 mm, Sigma-Aldrich, St. Louis, MO, USA). They were continuously excited for 50 mins.
During this period, the fluorescence intensity was measured every 5 mins at 525 nm (F16s, Rhodamine 6G, Mitotracker Green) or 600 nm (Mitotracker Red). Relative fluorescence intensity change was monitored over time. […]

A short description of data set [3]: Relative fluorescence quantum yield. Format: physicochemical. Particulars: EtOH, relative to rhodamine 6G, excited at 425 nm. The protocol:
Quantum yield. The fluorescence quantum yields of F16s were determined according to the […]
Where Φ is the quantum yield, F is the integrated area under the corrected emission spectrum, and A is the absorbance at the excitation wavelength; the subscripts x and s refer to F16s and the standard, respectively. Rhodamine 6G (ΦF = 95%) in ethanol was used as the standard. All F16s and Rhodamine 6G were dissolved in ethanol in 5 different concentrations with the absorbance lower than 0.1 at 425nm. The corresponding 5 different fluorescences of F16s and Rhodamine 6G were excited at 425 nm and the emission spectra from 450 nm to 650 nm were obtained for the following integrated area measurement. All data were analyzed using Origin Pro 9.0 software (OriginLab, Northampton, Massachusetts, USA) to get the F16s final quantum yield. […]

Data set [4] can be described thus: Absorption and emission spectra in water. Format: physicochemical. The conditions noted are these: 31 μM.
Details of data set [5]: method as in PMID 19072739, PMID 10656430, PMID 12154051. Particulars: study halted at Phase II; cited from earlier work.
Details of data set [6]: method as in earlier work. The conditions noted are these: in ethanol, used as the standard; ref 2 of the supplement; cited from earlier work.

Data on 13 molecules can be found in paper PMC6836573, “Mitochondria-targeting fluorescent molecules for high efficiency cancer growth inhibition and imaging” (Chemical Science, 2019).

pIC50: −log10 of the molar value. Entries after “also recorded” stand apart in the source; their conditions may differ. Some results are limits rather than exact numbers.

The term pIC50 denotes the negative decadic logarithm of the IC50, by convention in mol/L. Low readings indicate a high IC50, high ones a low IC50. What is called IC50 is the concentration that inhibits the measured activity by half. Take `Cn1cc(/C=C/c2cc[n+](C)cc2)c2cc(F)ccc21` [1-MeFF16]: the pIC50 was 4.72 in the data set on NSCLC H838 cell (Homo sapiens, NCI-H838, 72 h) and 4.66 in the data set with bladder cancer T24 cell (Homo sapiens, T-24, 72 h). Inhibition in data set [1] was half-maximal at 104 µM (IC50 at 3 days). For the same molecule, the photostability entry in data set [2] (listed as 1) was “bleached quite easily; also recorded: dramatically decreased photostability”. In addition, the “Quantum Yield” value was 13.6% in data set [3] and “around 12%” in data set [3] (listed as 1).
With `C[n+]1ccc(/C=C/c2c(Cl)[nH]c3ccccc23)cc1` [2-ClF16], the pIC50 is 4.59 in the data set with NSCLC H838 cell (Homo sapiens, NCI-H838, 72 h) and 4.26 with bladder cancer T24 cell (Homo sapiens, T-24, 72 h). The IC50 at 3 days in data set [1] was found to be 13.8 µM. In data set [2] (listed as 8), the photostability result was “bleached quite easily; also recorded: poor photostability”. In addition, the figures for the “Quantum Yield” value in data set [3] and in data set [3] (listed as 8) were 8.6% and “under 10%”, respectively.
Consider `Cc1ccc2[nH]c(C)c(/C=C/c3cc[n+](C)cc3)c2c1` [2-Me-5-MeF16], for which the pIC50 was 4.76 with NSCLC H838 cell (Homo sapiens, NCI-H838, 72 h) and 4.16 with bladder cancer T24 cell (Homo sapiens, T-24, 72 h). Besides, the absorption peak entry in data set [4] is given as “about 450 nm”. Moreover, half-maximal inhibition in data set [1] (IC50 at 3 days) required 161 µM. For the same molecule, the photostability entry in data set [2] (listed as 9) was “bleached quite easily; also recorded: poor photostability”. Further, the “Quantum Yield” value in data set [3] is given as 18.1%; in data set [3] (listed as 9), “around 20%”.
Regarding `C[n+]1ccc(/C=C/c2c(-c3ccccc3)[nH]c3ccccc23)cc1` [2-PhF16], the pIC50 was 5.43 in the data set on NSCLC H838 cell (Homo sapiens, NCI-H838, 72 h) and 5.40 in the data set on bladder cancer T24 cell (Homo sapiens, T-24, 72 h). Further, the absorption peak entry in data set [4] is “about 450 nm”. The molecule also returned an IC50 at 3 days in data set [1] of 0.326 µM. Also, the results for the “Quantum Yield” value in data set [3] and in data set [3] (listed as 5) were 5.8% and “under 10%”, respectively.
With `C[n+]1ccc(/C=C/c2c[nH]c3ccc(Br)cc23)cc1` [5-BrF16], the pIC50 in the data set on NSCLC H838 cell (Homo sapiens, NCI-H838, 72 h) is 5.92; with bladder cancer T24 cell (Homo sapiens, T-24, 72 h) it was 5.74. Also, the IC50 at 3 days in data set [1] was determined as 11.6 µM. The “Quantum Yield” value in data set [3] turned out to be 49.1%.
On to `C[n+]1ccc(/C=C/c2c[nH]c3ccc(C#N)cc23)cc1` [5-CNF16], for which the pIC50 with NSCLC H838 cell (Homo sapiens, NCI-H838, 72 h) was 4.70; with bladder cancer T24 cell (Homo sapiens, T-24, 72 h) it was 3.50. For the same molecule, the “Quantum Yield” value in data set [3] was 9.7%; in data set [3] (listed as 6), “under 10%”.
Consider `C[n+]1ccc(/C=C/c2c[nH]c3c(F)cc(I)cc23)cc1` [5-I-7-FF16], for which the pIC50 with NSCLC H838 cell (Homo sapiens, NCI-H838, 72 h) is 5.89; in the data set on bladder cancer T24 cell (Homo sapiens, T-24, 72 h), 5.42. Besides, the IC50 at 3 days in data set [1] was determined as 14.2 µM. The “Quantum Yield” value is 4.5% in data set [3] and “under 10%” in data set [3] (listed as 10).
As to `C[n+]1ccc(/C=C/c2c[nH]c3ccccc23)cc1` [F16, reference compound], the pIC50 with NSCLC H838 cell was 4.33; in the data set with bladder cancer T24 cell it was 4.73.
As to `C[n+]1ccc(/C=C/c2c[nH]c3ccc(F)cc23)cc1` [FF16], the pIC50 in the data set with NSCLC H838 cell (Homo sapiens, NCI-H838, 72 h) is 5.44; in the data set on bladder cancer T24 cell (Homo sapiens, T-24, 72 h), 5.20. Besides, the IC50 at 3 days in data set [1] worked out at 75.1 µM. The molecule further yielded a selectivity indices in the data set with bladder cancer T24 cell (3T3 versus T24 and H838) above 10. Besides, the “Quantum Yield” value in data set [3] is on record as 18.5%; in data set [3] (listed as 7), “around 20%”.
As to `CCn1c(=O)/c(=C2\Sc3ccccc3N2C)s/c1=C\c1cccc[n+]1CC.[Cl-]` [MKT-077], in data set [5], the “anti-tumor effect in clinical trial” value is on record as “limited anti-tumor effect” and the “nephrotoxicity in clinical trial” value is “mild nephrotoxicity”.
On to `C[n+]1ccc(/C=C/c2c[nH]c3ccc([N+](=O)[O-])cc23)cc1` [NO2F16], for which the pIC50 in the data set on NSCLC H838 cell (Homo sapiens, NCI-H838, 72 h) was 5.33; in the data set with bladder cancer T24 cell (Homo sapiens, T-24, 72 h), 4.13. The same molecule showed an IC50 at 3 days in data set [1] of 86 µM. In addition, the “Quantum Yield” value in data set [3] is listed as 1.24%; in data set [3] (listed as 11) it was “under 10%”.
With `C[n+]1ccc(/C=C/c2c[nH]c3c2ccc2ccccc23)cc1` [PhF16], the pIC50 in the data set on NSCLC H838 cell (Homo sapiens, NCI-H838, 72 h) is 5.82; in the data set with bladder cancer T24 cell (Homo sapiens, T-24, 72 h), 5.99. This molecule also returned an IC50 at 3 days in data set [1] of 0.28 µM. The “Quantum Yield” value is on record as 12.2% in data set [3] and “around 12%” in data set [3] (listed as 2).
On to `CC/N=c1\cc2oc3cc(NCC)c(C)cc3c(-c3ccccc3C(=O)OCC)c-2cc1C` [rhodamine 6G], for which the “Quantum Yield of the standard” value in data set [6] is on record as 95%.
